Reference: PMC4872784 (Oncotarget, 2016)
Values joined by “and” are separate entries in the source; they are usually repeats but may differ in a detail not shown here. Identical values can stand only once. Like-named read-outs stand apart in the source and are kept apart here.

Assays:
[1] = plasma pharmacokinetics after single oral dose; settings: NSG mice
Protocol: (§8) Plasma samples were obtained from 3-6 male NSG mice per time point (15min-24h after drug administration). Symbols represent concentrations of compound by LC/MS-MS detection.
(§9) Blood samples were collected via retro-orbital bleeding into EDTA-coated tubes. PK samples were centrifuged to obtain plasma, which was stored frozen (−80°C) until liquid chromatography/triple quadrupole mass spectrometry (LC/MS-MS) analysis.
(§10) were separated using an Agilent Zorbax Eclipse C18 column (2.1 mm x 50 mm, 3.5 μm) using gradient mobile phase
(§11) (acetonitrile and 2 mM ammonium acetate both containing 0.1% formic acid) and a gradient flow rate (0.2 to 0.4 ml/
(§12) min). An AB Sciex 5500 triple quadrupole mass spectrometer was used for detection. The m/z transitions used were
(§13) The calibration range was 5–1,000 ng/mL for all analytes. Mean drug concentrations were calculated at each time point. PK parameters (plasma
(§14) half-life [T1/2]; time to reach Cmax [Tmax]; maximum plasma concentration [Cmax]; area under the plasma concentration-
(§15) time curve [AUC] from time zero to the last measurable concentration [AUClast]; AUC from time zero to infinity [i.e.,
(§16) the AUClast + the extrapolated AUC from AUClast to infinity; AUC0–∞]; apparent volume of distribution [Vz/F]; body
(§17) weight-adjusted apparent clearance [CL/F/kg]) were calculated from mean drug concentration-time data using non-
(§18) the r2 of the elimination rate constant (λ ) was < 0.9, the AUC , CL/F, and T were not reported (NR).

MOLM14 or KOPN8 cells = assay: drug combinations, alamarBlue 48h, combination indices; settings: for effect of addition on cytotoxicity of ARA, DOX, ETO, MID, LES, SOR: equipotency ratio based on IC50s, 48h
Protocol: Supplementary Figure S10: Drug combinations against MOLM14. MOLM14 cells were treated with a range of concentrations
experiment was performed three times in triplicate, and error bars represent the SEM.
Combination indices (CI) were computed for each drug combination using CompuSyn software, based on the Median Effect
Principle and the CI theorem of Chou-Talalay, wherein CI = 1 indicates additivity, CI < 1 synergism, and CI > 1 antagonism. Data are
Supplementary Figure S11: Drug combinations against KOPN8. KOPN8 cells were treated with a range of concentrations
Each experiment was performed at least three times in triplicate, and error bars represent the SEM.

NSG mice = assay: tolerability / maximum-tolerated dose
Protocol: (§1) Blood samples were collected via
(§2) retro-orbital bleeding into EDTA-coated tubes from MOLM14 NSG mice 1 day A-D. and 7 days E-H. after completion of a 5-day drug
(§3) CBCs were determined using a Hemavet 950 analyzer.
(§4) Normal blood samples were obtained from normal, untreated NSG mice (n = 37) over several years.

in vivo [2] = settings: NSG, mouse, in vivo, po
Protocol: as §1, §2, §3, §4

[3] = test system: 23 human leukemia cell lines; assay: alamarBlue cytotoxicity assay, panel summary; format: cell-based
Protocol: (§5) Following subtraction of background fluorescence from all wells, fluorescence of drug-treated cells was normalized to that of vehicle (<0.5% DMSO)-treated cells to determine the effect of each drug concentration on viability. Each cell line was tested in triplicate and in at least three independent experiments. IC50 (concentration that inhibits cell growth by 50%) values were calculated using CompuSyn software (ComboSyn, Paramus, NJ). […] In addition several cell lines were initially cultured and tested in alternative media (Supplementary Table S2). […] Colony counts were normalized to vehicle-treated controls (100%). Three independent experiments were performed.
(§6) In most experiments, cytotoxicity was assessed using alamarBlue assays (Life Technologies, Grand Island, NY). In experiments using NAC and DFO, which can interfere with alamarBlue assay performance, Trypan Blue dye exclusion was used instead.

MOLM14 cells [4] = assay: viable cell counts via Trypan Blue dye exclusion, 48h; format: cell-based, human
Protocol: (§7) A. Quantification of the percentage of early apoptotic cells (Annexin-V+/7-AAD-) from three independent experiments in which cells were stained for apoptosis with 7-AAD and Annexin-V then analyzed by flow cytometry. […] C. […] 16h after addition of drugs, cells were washed and analyzed by flow cytometry for CM-H2DCFDA fluorescence (indicating total ROS generation) in the FL1 channel. Mean Fluorescence Intensity (MFI) was normalized to that of vehicle control (0.5% DMSO) with no pretreatment. […] Viable cell counts, obtained via Trypan Blue dye exclusion, were normalized to vehicle (0.02% DMSO)-treated samples +/– pretreatment.
as §6

MOLM14 cells [5] = assay: alamarBlue cytotoxicity assay, 48h; format: cell-based, human; settings: for IC50: MOLM14 (AML), 48h, RPMI + 10% FBS
Protocol: as §5
In most experiments, cytotoxicity was assessed using alamarBlue assays (Life Technologies, Grand Island, NY). In experiments using NAC and DFO, which can interfere with alamarBlue assay performance, Trypan Blue dye exclusion was used instead. […]
experiments performed in triplicate. […] Age refers to age […]
at the time of leukemia diagnosis of the patient from whom the cell line was derived. (–) Indicates information unavailable.
*Cell lines with FLT3/ITD mutations.
*The MV-4–11 cell line was derived from a patient with a biphenotypic B-myelomonocytic leukemia; K562 was derived […]
1A. p53 status was obtained from http://cancer.sanger.ac.uk/cell_lines/cbrowse/all and http://p53.free.fr/Database/Cancer_ cell_lines/Leukemia_cancer. html. WT: wild type. Mut: mutant. SM: single mutation. DM: double mutation. MM: multiple mutations. Fs: Frameshift mutation. Null: protein expression undetectable. […]
measured via alamarBlue assay. […]

[6] = test system: Caspase-3/7 activity in MOLM14 cells; assay: Caspase-Glo 3/7 Assay; format: cell-based, human; settings: AS 5 μM, 24h
Protocol: as §7
Cells were co-stained with […] each 7-AAD and APC-conjugated Annexin-V (BioLegend), in Annexin-V binding buffer and analyzed by flow cytometry. Caspase-3/7 activity was measured using a Caspase-Glo 3/7 Assay (Promega, Madison, WI).

in vivo [7] = settings: male, NSG, mouse, plasma, po, 200 mg/kg
Protocol: as §8, §9, §10, §11, §12, §13, §14, §15, §16, §17, §18

[8] = test system: Jurkat T-cell acute lymphoblastic leukemia (T-ALL) cells; parameters: method as in PMID 23673218; settings: cited from earlier work
[9] = plasma, single oral dose ART-838 50 mg/kg

For `C[C@H]1[C@H](OC(=O)CCC(=O)O)O[C@@H]2O[C@@]3(C)CC[C@H]4[C@H](C)CC[C@@H]1[C@@]24OO3` [AS, artesunate], the “time by which plasma declined to undetectable levels” value ([1]; single oral dose AS 200 mg/kg) was no more than 1 h, the “interaction with SOR” value (MOLM14 or KOPN8 cells; combination indices) was “additive effects” and the “effect of addition on cytotoxicity of ARA, DOX, ETO, MID, LES, SOR” value (MOLM14 or KOPN8 cells) was “enhanced the cytotoxicity of all six tested drugs”. The clinical neurotoxicity (NSG mice; mouse, in vivo) was “no clinical neurotoxicity was observed”, the dose-limiting toxicity (NSG mice; mouse, in vivo, po) was “acute weight loss” and the MTD (in vivo [2]) was 500 to 600 mg/kg. The MTD at 5 days/week (in vivo [2]) was 150 to 200 mg/kg, the IC50 ([3]; Homo sapiens, 48 h, all 23 leukemia cell lines tested, 48h, read-out: IC50 range) was 460 to 10300 nM and the IC50 ([3]; Homo sapiens, Leukemia Type: ALL, unit only on plot axis of Figure 1A, read-out: IC50 Range) was 460 to 10000 nM. The IC50 ([3]; Homo sapiens, Leukemia Type: ALL, unit only on plot axis of Figure 1A, read-out: Mean IC50) was 5000 nM, the IC50 ([3]; Homo sapiens, Leukemia Type: ALL, unit only on plot axis of Figure 1A, read-out: Median IC50) was 4800 nM and the IC50 ([3]; Homo sapiens, Leukemia Type: AML, unit only on plot axis of Figure 1A, read-out: IC50 Range) was 800 to 6300 nM. It also gave an IC50 ([3]; Homo sapiens, Leukemia Type: AML, unit only on plot axis of Figure 1A, read-out: Mean IC50) of 2300 nM, an IC50 ([3]; Homo sapiens, Leukemia Type: AML, unit only on plot axis of Figure 1A, read-out: Median IC50) of 1700 nM and an IC50 (MOLM14 cells [4]; Homo sapiens, MOLM-14, MOLM14, 48h, Pre-Treatment: CTRL, unit inferred, read-out: IC50) of 885 ± 57 nM. For the same compound, the inhibition at 5 µM (MOLM14 cells [5]; Homo sapiens, MOLM-14, 48 h, MOLM14, 5 μM AS, alamarBlue, read-out: growth inhibition by 48h) was 90 to 99%, the IC90 (MOLM14 cells [5]; Homo sapiens, MOLM-14, MOLM14) was 5000 nM and the IC50 (MOLM14 cells [5]; Homo sapiens, MOLM-14) was 825 nM. For the same compound, the caspase-3/7 activity [6] was “caspase-3/7 activation”, the AUC(0-t) (in vivo [7]) was 34.8 ng·h/mL and the Cmax (in vivo [7]) was 67 ng/mL and 240 nM. It also gave a Tmax (in vivo [7]) of 0.25 h.

In the case of `C[C@@H]1CCC2[C@@H](C)[C@@H](CC(COP(=O)(Oc3ccccc3)Oc3ccccc3)C[C@H]3O[C@@H]4O[C@@]5(C)CCC6[C@H](C)CCC([C@H]3C)[C@]64OO5)O[C@@H]3O[C@@]4(C)CCC1[C@@]23OO4` (some centres unmarked) [ART-838, artemisinin-derived trioxane diphenylphosphate dimer 838], the “fold longer T1/2 than DHA” value ([1]; ART-838 50 mg/kg vs DHA after AS 200 mg/kg, oral) is reported as roughly 6 fold, the “detection of theoretical metabolites DHA and ART-606 in plasma” value ([1]; after ART-838 administration, LC/MS-MS) is reported as “did not detect DHA or ART-606” and the “AUC0–∞” value [1, 9] is reported as 951 ng·h/mL. For the same compound, the AUClast [1, 9] was 903 ng·h/mL, the CL/F/kg [1, 9] was 867 mL/min/kg and the Tmax [1, 9] was 1.5 h. For the same compound, the Vz/F [1, 9] was 241 L/kg, the T1/2 ([1]; plasma, single oral dose ART-838 50 mg/kg, 50 mg/kg) was 3.19 h and > 3 h and the “interaction with kinase inhibitors MID, LES, SOR” value (MOLM14 or KOPN8 cells; combination indices) was “combined synergistically with all three kinase inhibitors”. For the same compound, the “effect of addition on cytotoxicity of ARA, DOX, ETO, MID, LES, SOR” value (MOLM14 or KOPN8 cells) was “enhanced the cytotoxicity of all six tested drugs”, the “chronic MTD” value (NSG mice; 5 days/week by oral gavage, NSG mice) was 40 to 50 mg/kg and the dose-limiting toxicity (NSG mice; NSG mice, oral gavage) was “acute weight loss”. For the same compound, the clinical neurotoxicity (NSG mice; NSG mice, prior toxicity experiments at approximate chronic MTD) was “no clinical neurotoxicity was observed”, the “complete and differential blood cell counts” value (NSG mice; normal NSG mice, 5-day cycle ART-838 50 mg/kg/d, days 6 and 12) was “normal complete and differential blood cell counts” and the “single dose MTD” value (NSG mice; oral gavage, NSG mice) was 500 to 600 mg/kg. The “fold lower IC50 than that of AS” value [8] was roughly 70 fold, the “fold more potent than AS (average)” value ([3]; across 23 leukemia cell lines) was 88 fold and the “fold more potent than AS (range)” value ([3]; across 23 leukemia cell lines) was 11-315 fold. For the same compound, the IC50 ([3]; all 23 leukemia cell lines tested, 48h, read-out: IC50 range) was 10 to 550 nM, the IC50 ([3]; including those harboring MLLr and FLT3/ITD, read-out: IC50 against every acute leukemia tested) was less than 1000 nM and the “fold resistance to growth inhibition after DFO pretreatment” value (MOLM14 cells [4]; MOLM14, DFO 11 μM pretreatment) was 3 fold. For the same compound, the “fold resistance to growth inhibition after NAC pretreatment” value (MOLM14 cells [4]; MOLM14, NAC 25 μM pretreatment) was “not increased”, the IC90 (MOLM14 cells [5]; MOLM14) was 100 nM and the IC50 (MOLM14 cells [5]) was 25 nM. For the same compound, the “growth inhibition by 48h” value (MOLM14 cells [5]; MOLM14, 0.1 μM ART-838, alamarBlue) was 90-99%.
